# In patent US20240390395A1, “APPLICATION OF ION CHANNEL BLOCKER IN TREATMENT AND/OR PREVENTION OF HEPATIC FIBROSIS” (Affiliated Hospital of Zunyi Medical University, priority 2023, published 2024):
# Assays:
# LC3 [1] = test: LC3 in hepatic tissues detected by Western blotting; type: in vivo, mouse; settings: CCl4-induced hepatic fibrosis mice; gliclazide solution 500 μM intraperitoneal
# Method: (§1) The mice are randomly divided into four groups including a, b, c, and d. • a. Normal control group. • b. Model group: mice are intragastrically administered with the CCl4 solution, 0.1 mL/20 g (i.e., 0.1. mL CC14 per 20 g of body weight of mice), twice a week for 8 weeks. • c. CCl4+gliclazide group: mice are intragastrically administered with the CCl4 solution alone, 0.1 mL/20 g, twice a week for 2 weeks; then the mice are given with the gliclazide solution and the CCl4 solution together for 6 weeks; and an administration method of the gliclazide solution is 0.2mL/20g and intraperitoneal injection once a day. • d. Gliclazide group: the gliclazide solution is intraperitoneally injected into mice for 8 weeks; and an administration method of the gliclazide solution is 0.2 mL/20 g and intraperitoneal injection once a day. Experimental materials include mouse hepatic tissues, a tweezer, a scissor, steel balls with a size of 2 millimeters (mm), a magnet, a cell lysis solution, a PBS solution, a bicinchoninic acid (BCA) protein assay kit, non-fat powdered milk, primary antibodies and corresponding secondary antibodies related to α-SMA, LC3, and p62. An experimental method is as follows. […] The optical density (OD) value at 560 nanometers (nm) is measured by using an enzyme-linked immunosorbent assay (ELISA) on the machine to calculate the concentration of the protein. […]
# LC3 [2] = test: LC3 in HSCs detected by Western blotting; type: cell-based, rat; settings: HSCs-T6; gliclazide 100 βM; TGF-β1 10 ng/ml; 48 hours
# Method: (§2) Experimental materials include HSCs-T6, a DMEM complete culture medium, cell culture dishes, a cell lysis solution, a PBS solution, a BCA protein assay kit, non-fat powdered milk, primary antibodies and corresponding secondary antibodies related to α-SMA, LC3, and p62. Experimental method is as follows. First, this experiment is divided into a normal group, a TGF-β1 group, a gliclazide +TGF-β1 group, and a gliclazide group. The concentration of the TGF-β1 is 10 ng/ml, and the concentration of the gliclazide is 100 βM. The the HSCs-T6 is cultured by using the cell culture dish, and inoculated, administrated, added with TGF-β1 according to the conditions described in the embodiment 4. After 48 hours, the incubated cells are rinsed by the precooled PBS solution for 3-4 times, and residual PBS liquid is absorbed with a filter paper, 50 μL radioimmune precipitation assay (RIPA) buffer and 0.5 μL (100:1) phenylmethanesulfonyl fluoride (PMSF) with a concentration of 100millimoles per liter (mmol/L) are added in a 50 mL culture flask and placed on ice for 30 minutes. Then, the protein is scraped by a cell scraper from the culture flask and suctioned out into the EP tubes, and centrifuged at 12000 rpm for 30 minutes at 4° C. […] The OD value at 560 nm is measured by using ELISA on the machine to calculate the concentration of the protein. […]
# p62 [3] = test: p62 in hepatic tissues detected by Western blotting; type: in vivo, mouse; settings: CCl4-induced hepatic fibrosis mice; gliclazide solution 500 μM intraperitoneal
# Method: as §1
# α-SMA [4] = test: α-SMA in HSCs detected by Western blotting; type: cell-based, rat; settings: HSCs-T6; gliclazide 100 βM; TGF-β1 10 ng/ml; 48 hours
# Method: as §2
# p62 [5] = test: p62 in HSCs detected by Western blotting; type: cell-based, rat; settings: HSCs-T6; gliclazide 100 βM; TGF-β1 10 ng/ml; 48 hours
# Method: as §2
# α-SMA [6] = test: α-SMA in hepatic tissues detected by Western blotting; type: in vivo, mouse; settings: CCl4-induced hepatic fibrosis mice; gliclazide solution 500 μM intraperitoneal
# Method: as §1
# HSCs-T6 = test: HSCs proliferation under co-culture of gliclazide and TGF-β1 detected by CCK8; type: cell-based, rat; settings: TGF-β1 10 ng/mL, 48 hours, P<0.05
# Method: Experimental materials include HSCs-T6, a Dulbecco's modified eagle medium (DMEM) complete culture medium, a 96-well plate, a counting chamber (also referred to as hemocytometer), CCK-8 working solution, and the like. An experimental method is as follows. First, HSCs-T6 are cultured in the DMEM culture medium containing 10% fetal bovine serum, 1% double antibody (penicillin streptomycin solution) and 1% nonessential amino acid (NEAA), and the culture conditions include 37° C. and 5% CO2. The cells are digested by using trypsin for passage cultivation after the cells are converged to 80% to 90%. Next, the cells are inoculated in the plate, specifically, a density of […] cell suspension with a volume of 100 μL is added into each well of the 96-well plate, each group has 6 replicate wells. This experiment is divided into a control group and a TGF-β1 group, TGF-β1+gliclazide (the gliclazide used in this group has different concentrations of 50μM, 100μM, 150μM, and 200μM) medicament groups. After cell attachment, except for the control group and the TGF-β1 group, the other groups are added with gliclazide with the above concentrations respectively, and after 3 hours, TGF-β1 (10 ng/mL) is added to corresponding groups for stimulating HSCs of […]. After 48 hours of incubation, 100 μL mixed solution of “10% CCK8+90% culture medium” is added into each well. Then the incubation is performed at 37° C. for 1˜4 h, a wavelength is set at 450 nm, and an automatic enzyme analyzer is used to read and record absorbance values at the corresponding wavelength. The effects of gliclazide on cell proliferation are detected by CCK8, and the optimal action time and optimal medicament concentration are screened.
# α-SMA [7] = test: α-SMA in hepatic tissues detected by immunohistochemistry; type: in vivo, mouse; settings: CCl4-induced hepatic fibrosis mice; gliclazide solution 500 μM intraperitoneal
# Method: The mice are randomly divided into four groups including a, b, c, and d. • a. Normal control group. • b. Model group: mice are intragastrically administered with the CCl4 solution, 0.1 mL/20 g (i.e., 0.1. mL CC14 per 20 g of body weight of mice), twice a week for 8 weeks. • c. CCl4+gliclazide group: mice are intragastrically administered with the CCl4 solution alone, 0.1 mL/20 g, twice a week for 2 weeks; then the mice are given with the gliclazide solution and the CCl4 solution together for 6 weeks; and an administration method of the gliclazide solution is 0.2mL/20g and intraperitoneal injection once a day. • d. Gliclazide group: the gliclazide solution is intraperitoneally injected into mice for 8 weeks; and an administration method of the gliclazide solution is 0.2 mL/20 g and intraperitoneal injection once a day. […] An experimental method is as follows.
# α-SMA [8] = test: α-SMA in HSCs added with autophagy agonist rapamycin, Western blotting; type: cell-based, rat; settings: HSCs-T6; gliclazide 100 βM; TGF-β1 10 ng/ml; 48 hours; P<0.05
# Method: Experimental materials include HSCs-T6, rapamycin, a DMEM complete culture medium, cell culture dishes, a cell lysis solution, a PBS solution, a BCA protein assay kit, non-fat powdered milk, primary antibodies and corresponding secondary antibodies related to α-SMA, LC3, and p62.
# Experimental method is as follows. First, this experiment is divided into a normal group, a TGF-β1 group, a gliclazide +TGF-β1 group, and a gliclazide +TGF-β1 +rapamycin group. The concentration of the TGF-β1 is 10 ng/ml, the concentration of the gliclazide is 100 βM, and the concentration of the rapamycin is 100 nanomoles per liter (nM). The TGF-β1 is added at the same time as that in the embodiment 5, and rapamycin and gliclazide are added simultaneously. After 48 hours of incubation, the above groups are detected by the BCA protein assay kit and Western blotting.
# [9] = test system: CCl4-induced hepatic fibrosis mice; test: CCl4-induced mouse hepatic fibrosis, HE staining and Sirius-red staining of hepatic tissue; type: in vivo; settings: gliclazide solution 500 μM, C57 mice
# Method: Experimental materials include 60 healthy male C57 mice (20-25 g per mouse, purchased from Chongqing […] Biotechnology Co., Ltd.), gavage needles, 1 milliliter (mL) syringes, CCI4 solution, olive oil, and gliclazide solution. An experimental method is as follows. The CCl4 solution is prepared by dissolving CCl4 in the olive oil (a volume ratio of CCl4 to olive oil is 1:4), and the prepared CCl4 solution should be used immediately. The gliclazide solution is prepared by dissolving gliclazide in physiological saline, the concentration of the gliclazide solution is 500 micromoles per liter (μM), and the prepared gliclazide solution should be used immediately. The mice are randomly divided into four groups including a, b, c, and d. • a. Normal control group. • b. Model group: mice are intragastrically administered with the CCl4 solution, 0.1 mL/20 g (i.e., 0.1. mL CC14 per 20 g of body weight of mice), twice a week for 8 weeks. • c. CCl4+gliclazide group: mice are intragastrically administered with the CCl4 solution alone, 0.1 mL/20 g, twice a week for 2 weeks; then the mice are given with the gliclazide solution and the CCl4 solution together for 6 weeks; and an administration method of the gliclazide solution is 0.2mL/20g and intraperitoneal injection once a day. • d. Gliclazide group: the gliclazide solution is intraperitoneally injected into mice for 8 weeks; and an administration method of the gliclazide solution is 0.2 mL/20 g and intraperitoneal injection once a day. The mice are sacrificed at the 2nd, 4th, 6th and 8th weeks of modeling respectively, and one mouse in each group is sacrificed each time. Hepatic samples obtained from the sacrificed mice are taken out and stored in liquid nitrogen at -80 Celsius degrees (° C.), and the other hepatic samples are fixed in paraformaldehyde with a concentration of 4% for 24 hours, then the other hepatic samples are embedding in paraffin. The degrees of severity of hepatic fibrosis are observed by appearance, Sirius-red staining, and hematoxylin-eosin (HE) staining. […]
# [10] = CCl4+gliclazide group vs model group, 0.2 mL/20 g intraperitoneal once a day for 6 weeks
smiles,measurement,setting,value
Cc1ccc(S(=O)(=O)NC(=O)NN2CC3CCCC3C2)cc1 (centres unmarked) [gliclazide],expression of LC3 in hepatic tissue (Western blotting),LC3 [1],significantly decreases
same,expression of LC3 in HSCs (Western blotting),LC3 [2],significantly decreases
same,expression level of autophagy substrate p62 in hepatic tissue (Western blotting),p62 [3],significantly increases
same,expression of α-SMA in HSCs (Western blotting),α-SMA [4],significantly decreases
same,expression level of autophagy substrate p62 in HSCs (Western blotting),p62 [5],significantly increases
same,expression of α-SMA in hepatic tissue (Western blotting),α-SMA [6],significantly decreases
same,proliferation of HSC-T6 induced by TGF-β1 (CCK8),HSCs-T6; gliclazide 100 μM,inhibits the proliferation
same,proliferation of HSC-T6 induced by TGF-β1 (CCK8),HSCs-T6; gliclazide 150 μM,inhibits the proliferation
same,proliferation of HSC-T6 induced by TGF-β1 (CCK8),HSCs-T6; gliclazide 200 μM,inhibits the proliferation
same,expression of α-SMA in hepatic tissues (immunohistochemistry),α-SMA [7],down-regulate
same,"protein expression level of α-SMA, gliclazide +TGF-β1 group vs TGF-β1 group",α-SMA [8],significantly lower
same,degree of hepatic fibrosis (HE staining),[9]; [10],significantly decreased
same,degree of hepatic tissue injury (HE staining),[9]; [10],significantly decreased
same,collagen fibers in hepatic tissue (Sirius-red staining),"[9]; gliclazide group without CCl4, 0.2 mL/20 g intraperitoneal once a day for 8 weeks",no obvious collagen fibers are observed
